This note sets out measurements from doi:10.1101/2021.06.24.449719v1 (biorxiv, 2021).

The test system of test [1] is BuGH3MLG. The experiment in a line: PAHBAH reducing sugar assay, […] nm. Type of test: biochemical, Bacteroides uniformis. The settings on record: 30 min hydrolysis.
Test [2] concerns BuGH3MLG. The experiment in a line: p-nitrophenol release, absorbance […] nm. The class given is biochemical, Bacteroides uniformis. The settings on record: sodium phosphate pH 5.7, 37 °C.

A word on the Km: it is the substrate concentration at which the rate is half of its maximum. With `OC[C@H]1O[C@@H](O[C@H]2[C@H](O)[C@@H](O)[C@H](O[C@H]3[C@H](O)[C@@H](O)C(O)O[C@@H]3CO)O[C@@H]2CO)[C@H](O)[C@@H](O)[C@@H]1O` (stereo partly shown) [Cellotriose], the Km in test [1] was determined as 26.1 ± 5.5 µM. `O=[N+]([O-])c1ccc(O[C@@H]2O[C@H](CO)[C@@H](O)[C@H](O[C@@H]3O[C@H](CO)[C@@H](O)[C@H](O)[C@H]3O)[C@H]2O)cc1` [p-Nitrophenyl β-D-laminaribioside]: the Km in test [2] was 880 ± 160 µM. Take `OC[C@H]1O[C@@H](O[C@H]2[C@H](O)[C@@H](CO)OC(O)[C@@H]2O)[C@H](O)[C@@H](O)[C@@H]1O` (stereo partly shown) [Laminaribiose]: the Km in test [1] is 7.1 ± 1.2 µM. Still for that read-out and setting: to `OC[C@H]1O[C@@H](O[C@@H]2[C@@H](O)[C@H](O[C@@H]3[C@@H](O)[C@H](O[C@H]4[C@H](O)[C@@H](CO)OC(O)[C@@H]4O)O[C@H](CO)[C@H]3O)O[C@H](CO)[C@H]2O)[C@H](O)[C@@H](O)[C@@H]1O` (stereo partly shown) [Laminaritetrose] belongs 9.9 ± 1.1 µM. As for `OC[C@H]1O[C@@H](O[C@H]2[C@H](O)[C@@H](O)[C@H](O[C@H]3[C@H](O)[C@@H](CO)OC(O)[C@@H]3O)O[C@@H]2CO)[C@H](O)[C@@H](O)[C@@H]1O` (stereo partly drawn) [β-D-cellobiosyl-glucose, β-d-Glc^iii(1→4)β-d-Glc^ii(1→3)-d-Glc^i], the Km in test [1] is 41.3 ± 7 µM.

For the compound `OC[C@H]1O[C@@H](O[C@H]2[C@H](O)[C@@H](O)[C@H](O[C@H]3[C@H](O)[C@@H](O)[C@H](O[C@H]4[C@H](O)[C@@H](O)C(O)O[C@@H]4CO)O[C@@H]3CO)O[C@@H]2CO)[C@H](O)[C@@H](O)[C@@H]1O` (stereo partly shown) [Cellotetraose], the Km in test [1] amounted to 56.9 ± 9 µM. For the compound `O=[N+]([O-])c1ccc(O[C@@H]2O[C@H](CO)[C@@H](O)[C@H](O)[C@H]2O)cc1` [p-Nitrophenyl-β-D-glucopyranoside], in test [2], the Km is 530 ± 120 µM.

For `OC[C@H]1O[C@@H](O[C@H]2[C@H](O)[C@@H](O)[C@H](O[C@H]3[C@H](O)[C@@H](O)[C@H](O[C@H]4[C@H](O)[C@@H](CO)OC(O)[C@@H]4O)O[C@@H]3CO)O[C@@H]2CO)[C@H](O)[C@@H](O)[C@@H]1O` (stereo partly drawn) [G4G4G3G, β-d-Glc^iv(1→4)β-d-Glc^iii(1→4)β-d-Glc^ii(1→3)-d-Glc^i], in test [1], the Km turned out to be 28.2 ± 6.2 µM.

`OC[C@H]1O[C@@H](OC[C@H]2OC(O)[C@H](O)[C@@H](O)[C@@H]2O)[C@H](O)[C@@H](O)[C@@H]1O` (stereo partly shown) [Gentiobiose]: the Km in test [1] amounted to 241 ± 16.2 µM. On to `O=[N+]([O-])c1ccc(O[C@@H]2O[C@H](CO)[C@@H](O[C@@H]3O[C@H](CO)[C@@H](O)[C@H](O)[C@H]3O)[C@H](O)[C@H]2O)cc1` [p-Nitrophenyl β-D-cellobioside], for which, in test [2], the Km is 640 ± 90 µM. For the compound `OC[C@H]1O[C@@H](O[C@@H]2[C@@H](O)[C@H](O[C@H]3[C@H](O)[C@@H](CO)OC(O)[C@@H]3O)O[C@H](CO)[C@H]2O)[C@H](O)[C@@H](O)[C@@H]1O` (stereo partly shown) [Laminaritriose], in test [1], the Km was 7.5 ± 0.5 µM. With `CC(=O)N[C@H]1[C@H](Oc2ccc([N+](=O)[O-])cc2)O[C@H](CO)[C@@H](O)[C@@H]1O` [p-nitrophenyl-N-acetyl glucosaminide], the Km in test [2] worked out at 2900 ± 700 µM. On to `OC[C@H]1O[C@@H](O[C@H]2[C@H](O)[C@@H](O)C(O)O[C@@H]2CO)[C@H](O)[C@@H](O)[C@@H]1O` (stereo partly shown) [Cellobiose], for which the Km in test [1] was found to be 7.4 ± 1.24 µM.
